From US20220249525A1, “Fatty Acid Compounds for Prevention and Treatment of Neurodegenerative Disorders” (T OMEGA AS, priority 2019, published 2022)
Where a name gives a salt, the structure may show the parent alone.

Legend:
[1] = 4 week high-fat diet study, body weight, adipose tissue, plasma glucose and cholesterol; type: in vivo, C57BL/6 mice; settings: mice, N-TTA 750 mg/kg or triple-N-TTA 350 mg/kg body weight, 4 weeks
Method: This animal study was conducted according to the Guidelines for the Care and Use of Experimental Animals, and the protocol was approved by the Norwegian Food Authorities. 7 to 8-weeks old male C57BL/6 mice, were obtained from Janvier Labs. After one week of acclimatization, they were divided into 3 groups of 7 animals. One group was fed a control high-fat (25 w/v) diet while the two remaining groups were fed a high-fat diet supplemented with either N-TTA (750 mg/kg body weight) or triple-N-TTA (350 mg/kg body weight). After 4 weeks of feeding, the mice were anaesthetized with Isofluorane (Forane, Abbot Laboratories Ltd, Illinois, USA) inhalation under fasting conditions, and blood and liver samples were collected. […]
Glucose and lipids in plasma was measured on the Hitachi 917 system (Roche Diagnostics, GmbH, Mannheim, Germany) using kits from Roche Diagnostics or DiaSys.

HuH-7 cells [2] = assay: WST-1 cell viability assay in HuH-7 cells; type: cell-based; settings: 2 days
Method: (§1) The fatty acids (FAs) TTA, tr-TTA, N-TTA, tr-N-TTA and (PA) were complexed with FBS following the same procedure, differing only in final stock concentration, due to variation in solubility. Approximately 0.07 g of FA was weighed in a 10 ml sterile serum tube (BD Vacutainer®, catalog no. 368430) and dissolved in sterile filtrated 0.1 M sodium hydroxide (NaOH) of a volume giving 25 mM FA, controls without FA were made, containing only NaOH and FBS. A syringe (Sterican®, catalog no. 4657577) was pierced through the rubber cap of the serum tube, and the tube was placed in an 80° C. water bath until the FAs were dissolved. Each FA-solution was then diluted in inactivated FBS to stock concentration 1 mM (N-TTA, tr-N-TTA), and 2 mM by adding the FA to a volume of 100% FBS after heating the FBS to 45° C. in a water bath. The transfer of FA to FBS had to be executed controlled and swiftly to avoid the formation of precipitates. If any precipitates in the solution were visible, the FA and a new volume of FBS were reheated, and the procedure performed again. Following successful complexation, the stock solutions were stored at −20° C. in 1 ml aliquots (CryoPure tube, Sarstedt AG & Co, Nümbrecht, Germany).
(§2) The WST-1 cell proliferation assay was performed using the kit from Roche (table 4.2.) and its accompanying procedure (version 16, February 2011) (134). The number of cells seeded to each well in the 96-well plates (Corning Inc., catalog no. 353072) varied depending on the treatment time and cell type (table 3.).
(§3) Cell suspension and medium were then transferred to each well in a volume of 100 μl in total. Subsequently, the plates were incubated for 24 hours to make the cells settle. The next day, 100 μl with FA complexed with FBS or diluted in DMSO was added to row A or B in the 96-well plate to give a defined concentration. The solution was then mixed with a pipette, and 100 μl of the medium with FA was transferred to the next well in the same column, mixed by pipetting up and down at least five times before 100 μl was transferred again to the next well in the column. This procedure was repeated until the second last, or last well in each column was reached, making a series of two-fold dilution of the FAs in the cell medium. Two parallels were performed for every treatment per run. After the addition of FAs, the plates were incubated for 24-96 hours depending on the length of the treatment.
(§4) Following the FA-treatment, the cells were studied under a microscope to ensure that visual observations matched the measured absorbance and cell activity in the assay. Subsequently, 10 μl WST-1 reagent was added to each well, and the plates were incubated for 3 hours. Due to high activity in the HuH-7 cell line, the WST-1 reagent was diluted 1:1 with PBS. Before the measurement of absorbance, the plates were placed on a shaker for 1 minute ensuring thoroughly mixing of the wells. The plates were then put straight into the spectrophotometer (SpectraMax Plus 384 Microplate Reader, Molecular Devices Corporation, San Jose, Calif., USA) to perform the measurements. The accompanying software was used (SoftMax Pro, Molecular Devices Corporation, San Jose, Calif., USA) to obtain the results. The absorbance of the samples was measured at 450 nm, and the reference wavelength was set to 650 nm. For each well, the measured absorption at 650 nm was subtracted from the absorption at 450 nm. The measured absorbance for the treated cells was then compared to the controls (blank) containing only cells and growth medium.

SH-SY5Y cells [3] = assay: WST-1 cell viability assay in SH-SY5Y cells; type: cell-based; settings: 4 days
Method: as §1, §2, §3
as §4, with “The accompanying software was used (SoftMax Pro, Molecular Devices Corporation, San Jose, Calif., USA) to obtain the results.” left out

[4] = tested on: MOLM-13 human acute leukemia cells; assay: WST-1 viability of MOLM-13 cells; type: cell-based; settings: for Abs450 nm (WST-1 viability): complexed to BSA
Method: MOLM-13 suspension cells were diluted and added to 96-well plates (15.000 cells/well).
The modified fatty acids TTA, tr-TTA, TDG (TGH) and tr-TDG (tr-TGH) were complexed to bovine serum albumin (BSA), and 10-fold dilutions of the fatty acids or BSA control were added to the wells in duplicate. Two plates were run in parallel, and WST-1 was added to the cells after 48 (plate 1) and 72 hours (plate 2). Absorbance at 450 nm measured to assess viability of the cells.

SH-SY5Y cells [5] = assay: Gene expression (qPCR) in SH-SY5Y cells treated with fatty acids; type: cell-based
Method: (§5) Cells from both cell lines were obtained and counted as previously mentioned. After cell counting, the cells were seeded to 6-well plates (Corning Inc., catalog no. 353046) with a density dependent on total treatment time and cell line. The cells were seeded in 3-4 ml medium and placed in the incubator for approximately 24 hours for the cells to settle. Following the 24 hours, the FAs were thawed in room temperature, the cell medium was aspirated off, and a new, exact volume was added to each well, depending on the final concentration of FA or control. Before the addition of FAs, the FA-solutions were mixed by pipetting up and down several times. The FAs were then added with an exact volume to the wells giving a total volume of 3 ml or 4 ml depending on treatment time, yielding the target concentration of FA in well. After the addition of FA to one well, the solution was mixed by carefully rotating the 6-well plate. The same procedure was followed for all the wells, differing only in FA or control added, and the ratio of medium and FA depending on treatment dose. During cell treatment, the plates were incubated under the same conditions as previously mentioned. PBS was placed between the wells to reduce liquid-loss due to evaporation. After treatment and incubation for 24-96 hours, the procedure of RNA purification was followed.
(§6) Purification of total RNA from treated HuH-7- and SH-SY5Y cells was done following the protocol “Purification of Total RNA from Animal Cells using Spin Technology” described in the RNeasy Mini Handbook (fourth edition, June 2012) with some modifications. The RNeasy Mini Kit was used.
(§7) Frozen RNA samples were thawed on ice or used directly after the RNA purification protocols. All samples from the cell lines were diluted with nuclease-free water to 50 ng/μl, and all samples from brain tissue were diluted to 200 ng/μl prior to cDNA synthesis. UHRR and UMRR were initially at 50 ng/μ1 (table 4.3.). The reactants (table 4.6.) used in the RT-mix were thawed on ice and mixed following the protocol “High Capacity cDNA Reverse Transcription Kits” (Applied Biosystems, June 2010) (153). From the master mix containing the total volume of the mixed reactants, 10 μl was added to each sample tube placed on ice already containing 10 μl of the diluted RNA. The samples with a total volume of 20 μl were mixed by pipetting up and down several times. In addition, samples without reverse transcriptase (−RT) were made, using nuclease-free water to replace the RT volume. The tubes were placed on ice until they were loaded to the GeneAmp* PCR system 2700 (Applied Biosystems, Foster City, Calif., USA) and the program described in table 4.7. was used. After the procedure, all samples were diluted to 10 ng/μl by the addition of nuclease-free water and placed for storage at 4° C. until further use.
The mix for the samples (and standard curves) was made using TaqMan Gene Expression Master Mix (table 4.8.), probes specific for the genes in question, and nuclease-free water. −RT and NTC samples were always used in the experiments. […] The prepared samples were placed in the PCR cycler (ABI PRISM 7900HT Sequence Detection System, Applied Biosystems) for quantification, using the 9600 Emulation Thermal Cycler Protocol (table 4.9.) in the software SDS 2.3 (Applied Biosystems, Foster City, Calif., USA).
(§8) When performing the qPCR reactions, all samples were analyzed in triplicates, and the mean value was used in further analysis. […]

HuH-7 cells [6] = assay: Gene expression (qPCR) in HuH-7 cells treated with fatty acids; type: cell-based
Method: as §5, §6, §7
The mix for the samples (and standard curves) was made using TaqMan Gene Expression Master Mix (table 4.8.), probes specific for the genes in question, and nuclease-free water. −RT and NTC samples were always used in the experiments. The master mix for each gene was made according to table 4.8. and added to tubes together with the cDNA. The tubes were vortexed and centrifuged briefly before the samples were added to a 384-well plate (Sarstedt AG & CO, catalog no. 72.1984.202) with the use of a pipette. For every sample, three parallels of 9 μl were used. After the addition of all the samples to the plate, a plastic cover (Sarsted AG & CO, catalog no. 95.1994) was used to seal the plate before centrifuging it for 2 minutes at 700 g. The prepared samples were placed in the PCR cycler (ABI PRISM 7900HT Sequence Detection System, Applied Biosystems) for quantification, using the 9600 Emulation Thermal Cycler Protocol (table 4.9.) in the software SDS 2.3 (Applied Biosystems, Foster City, Calif., USA).
as §8

[7] = 125 μM complexed with FBS, 24 hours
[8] = 25 μM dissolved in DMSO, 4 days

Compound: CC#CCCCCCCCCCCCNCC(=O)O [tr-N-TTA, Tetradec-12-yn-1-ylglycine hydrochloride]
- LDL cholesterol (plasma) [1]: reduced
- body weight gain vs high-fat control diet [1]: significantly lower
- cholesterol esters (plasma) [1]: reduced
- epididymal white adipose tissue depot [1]: reduced in size
- free cholesterol (plasma) [1]: reduced
- perirenal white adipose tissue depot [1]: reduced in size
- total cholesterol (plasma) [1]: reduced
- blood glucose vs high-fat control diet ([1]; fasting): significantly lower
- WST-1 activity compared to untreated cells (HuH-7 cells [2]; 16 μM, complexed with FBS): 109%
- WST-1 activity compared to no treatment (HuH-7 cells [2]; 500 μM): ~90%
- WST-1 activity compared to untreated cells (HuH-7 cells [2]; all concentrations): around 100%
- WST-1 activity compared to untreated cells (SH-SY5Y cells [3]; 500 μM): 84%
- WST-1 activity compared to untreated cells (SH-SY5Y cells [3]; all concentrations except 500 μM): ~100%
- Abs450 nm (WST-1 viability) ([4]; 48 hours, 0.0625 mM): 0.4964
- Abs450 nm (WST-1 viability) ([4]; 48 hours, 0.125 mM): 0.1452
- Abs450 nm (WST-1 viability) ([4]; 48 hours, 0.25 mM): 0.1679
- Abs450 nm (WST-1 viability) ([4]; 48 hours, 0.5 mM): 0.2177
- Abs450 nm (WST-1 viability) ([4]; 48 hours, 1 mM): 0.2833
- Abs450 nm (WST-1 viability) ([4]; 48 hours, 2 mM): 0.5009
- Abs450 nm (WST-1 viability) ([4]; 72 hours, 0.03125 mM): 0.3769
- Abs450 nm (WST-1 viability) ([4]; 72 hours, 0.0625 mM): 0.4452
- Abs450 nm (WST-1 viability) ([4]; 72 hours, 0.125 mM): 0.13
- Abs450 nm (WST-1 viability) ([4]; 72 hours, 0.25 mM): 0.1384
- Abs450 nm (WST-1 viability) ([4]; 72 hours, 0.5 mM): 0.1964
- Abs450 nm (WST-1 viability) ([4]; 72 hours, 1 mM): 0.366
- Abs450 nm (WST-1 viability) ([4]; 72 hours, 2 mM): 0.426
- toxicity to leukemic cells ([4]; MOLM-13, compared with TTA and tr-TTA): toxic to leukemic cells at a lower concentration than TTA and tr-TTA

Compound: CCCCCCCCCCCCCCCC(=O)O [PA]
- relative gene expression of CPT-2 vs control (SH-SY5Y cells [5]; [7]): No change
- relative gene expression of CYCS vs control (SH-SY5Y cells [5]; [7]): No change
- relative gene expression of TFAM vs control (SH-SY5Y cells [5]; [7]): No change
- relative gene expression of UCP3 vs control (SH-SY5Y cells [5]; [7]): No change
- CYCS gene expression vs FBS-control (SH-SY5Y cells [5]; additional treatments, 4 days, reference 18 S): small decrease
- relative expression of CPT-2 compared to control (HuH-7 cells [6]; [8]): 0.65
- relative expression of UCP3 compared to untreated cells (HuH-7 cells [6]; [8]): approximately 0.5
- increase in CPT-2 expression relative to control (HuH-7 cells [6]; 125 μM complexed with FBS, 1 day): 1.5 fold
- increase in CPT-2 expression relative to control (HuH-7 cells [6]; 125 μM complexed with FBS, 2 days): did not result in increased expression
- increase in CPT-2 expression relative to control (HuH-7 cells [6]; 125 μM complexed with FBS, 4 days): did not result in increased expression
- increase in relative expression of UCP3 (HuH-7 cells [6]; 125 μM complexed with FBS, all treatment periods (1, 2, 4 days)): did not induce any changes
- WST-1 activity compared to untreated cells (HuH-7 cells [2]; 62.5 μM, complexed with FBS): ~150%
- WST-1 activity (SH-SY5Y cells [3]; 500 μM): the same as the control
- WST-1 activity (SH-SY5Y cells [3]; concentrations up to 250 μM): stimulated activity
